IC50 data for 23 compounds are collected here from patent US10723705B2, “Heterocyclic compounds and uses thereof” (Incyte Corporation, priority 2015, dated 2020).

In the test the target is Human recombinant Histone Deacetylase 8 (HDAC8) (Homo sapiens (Human), UniProt Q9BY41). The test can be described thus: HDAC8 Enzymatic Assay (HDAC-Glo I/II luminescence). It counts as biochemical. Summed up: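 Human recombinant HDAC8 (1.5 nM final) preincubated with compound for 30 min, then reacted with 50 μM Boc-GAK(Ac)-aminoluciferin plus trypsin-containing developer for 15 min at room temperature, pH 8.0, 0.5% DMSO. Luminescence read-out; IC50 from percent control activity versus log concentration.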

Setting [1] is: class symbols, Table 14, read-out: HDAC8 IC50.

Like-named read-outs stand apart in the source and are kept apart here.

As a reminder, the IC50 is the point on the concentration scale where inhibition reaches its midpoint.

Chain of Human recombinant Histone Deacetylase 8 (HDAC8) (Q9BY41 whole entry): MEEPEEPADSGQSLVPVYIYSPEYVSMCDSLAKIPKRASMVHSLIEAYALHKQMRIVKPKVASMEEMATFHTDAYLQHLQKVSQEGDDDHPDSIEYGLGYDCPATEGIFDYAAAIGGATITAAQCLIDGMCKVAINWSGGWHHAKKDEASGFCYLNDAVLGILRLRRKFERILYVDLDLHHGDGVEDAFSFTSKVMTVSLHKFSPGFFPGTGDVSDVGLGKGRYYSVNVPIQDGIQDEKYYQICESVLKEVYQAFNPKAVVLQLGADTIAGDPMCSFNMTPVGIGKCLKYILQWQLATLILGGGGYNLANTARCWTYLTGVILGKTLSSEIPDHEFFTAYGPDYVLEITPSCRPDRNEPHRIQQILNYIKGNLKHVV

Consider `O=C(NO)C(Cc1ccccc1)n1cc2cccc(CN3CCC(N4CCOCC4)CC3)c2n1` (stereo not shown) [Compound I-0185, N-hydroxy-2-(7-((4-morpholinopiperidin-1-yl)methyl)-2H-indazol-2-yl)-3-phenylpropanamide], for which the concentration for half-maximal inhibition (IC50) under setting [1] was > 500 nM. Regarding `O=C(NO)C(Cc1ccccc1)n1cc2cccc(CN3CCC4(CC3)COC4)c2n1` (stereo not shown) [Compound I-0186, 2-(7-(2-oxa-7-azaspiro[3.5]nonan-7-ylmethyl)-2H-indazol-2-yl)-N-hydroxy-3-phenylpropanamide], the IC50 under setting [1] was > 500 nM. The same measure, in the same setting: with `O=C(NO)C(Cc1ccccc1)n1cc2cccc(CN3CCC4(CCOCC4)CC3)c2n1` (stereo not shown) [Compound I-0187, 2-(7-(3-oxa-9-azaspiro[5.5]undecan-9-ylmethyl)-2H-indazol-2-yl)-N-hydroxy-3-phenylpropanamide] the figure was > 500 nM. For the compound `CN1CCN(Cc2cccc3cn(C(Cc4ccccc4)C(=O)NO)nc23)CC1` (stereo not shown) [Compound I-0188, N-hydroxy-2-(7-((4-methylpiperazin-1-yl)methyl)-2H-indazol-2-yl)-3-phenylpropanamide], the IC50 under setting [1] was > 500 nM. As to `O=C(NO)C(Cc1ccccc1)n1cc2cccc(CN3CCC(F)(F)CC3)c2n1` (stereo not shown) [Compound I-0189, 2-(7-((4,4-difluoropiperidin-1-yl)methyl)-2H-indazol-2-yl)-N-hydroxy-3-phenylpropanamide], the IC50 under setting [1] was 200 to 500 nM.

For `O=C(NO)C(Cc1ccccc1)n1cc2cccc(CN3CCCC(F)(F)C3)c2n1` (stereo not shown) [Compound I-0190, 2-(7-((3,3-difluoropiperidin-1-yl)methyl)-2H-indazol-2-yl)-N-hydroxy-3-phenylpropanamide], the IC50 under setting [1] is 200 to 500 nM. The same measure, in the same setting: with `O=C(NO)C(Cc1ccccc1)n1cc2cccc(CN3CCC(C(F)(F)F)CC3)c2n1` (stereo not shown) [Compound I-0191, N-hydroxy-3-phenyl-2-(7-((4-(trifluoromethyl)piperidin-1-yl)methyl)-2H-indazol-2-yl)propanamide] the figure was > 500 nM. Consider `CN1CCN(Cc2cccc3cn(C(Cc4ccccc4)C(=O)NO)nc23)CC1=O` (stereo not shown) [Compound I-0192, N-hydroxy-2-(7-((4-methyl-3-oxopiperazin-1-yl)methyl)-2H-indazol-2-yl)-3-phenylpropanamide], for which the IC50 under setting [1] was in the range of 50 to 200 nM. Consider `O=C(NO)C(Cc1ccccc1)n1ccc2nc(Cl)ccc21` (stereo not shown) [Compound I-0193, 2-(5-chloro-1H-pyrrolo[3,2-b]pyridin-1-yl)-N-hydroxy-3-phenylpropanamide], for which the IC50 under setting [1] is > 500 nM. Take `O=C(NO)C(Cc1ccccc1)n1ccc2cc(Cl)ncc21` (stereo not shown) [Compound I-0194, 2-(5-chloro-1H-pyrrolo[2,3-c]pyridin-1-yl)-N-hydroxy-3-phenylpropanamide]: the IC50 under setting [1] is > 500 nM. In the case of `O=C(NO)C(Cc1ccccc1)n1ccc2cc(Cl)cnc21` (stereo not shown) [Compound I-0195, 2-(5-chloro-1H-pyrrolo[2,3-b]pyridin-1-yl)-N-hydroxy-3-phenylpropanamide], the IC50 under setting [1] was in the range of 200 to 500 nM. Same read-out and setting: with `O=C(NO)C(Cc1ccccc1)n1ccc2c(Cl)nccc21` (stereo not shown) [Compound I-0196, 2-(4-chloro-1H-pyrrolo[3,2-c]pyridin-1-yl)-N-hydroxy-3-phenylpropanamide] the figure was 200 to 500 nM. In the case of `O=C(NCCC1CCOCC1)c1cccc2c(C#CC3CC3)n(C(Cc3ccccc3)C(=O)NO)nc12` (stereo not shown) [Compound I-0197, 2-[1-Benzyl-2-(hydroxyamino)-2-oxethyl]-3-(cyclopropylethynyl)-N-[2-(tetrahydro-2H-pyran-4-yl)ethyl]-2H-indazole-7-carboxamide], the IC50 is, setting by setting: (HDAC8, read-out: IC50) 16 nM; under setting [1], ≤ 50 nM. As for `O=C(NO)C(Cc1ccccc1)n1cc2ccnc(-c3cncnc3)c2n1` (stereo not shown) [Compound I-0198, N-hydroxy-3-phenyl-2-(7-(pyrimidin-5-yl)-2H-pyrazolo[3,4-c]pyridin-2-yl)propanamide], under setting [1], the half-inhibitory concentration (IC50) is ≤ 50 nM. Still for that read-out and setting: with `Cn1nccc1-c1nccc2cn(C(Cc3ccccc3)C(=O)NO)nc12` (stereo not shown) [Compound I-0199, N-hydroxy-2-(7-(1-methyl-1H-pyrazol-5-yl)-2H-pyrazolo[3,4-c]pyridin-2-yl)-3-phenylpropanamide] the figure was ≤ 50 nM; with `O=C(NO)C(Cc1ccccc1)n1cc2c(n1)CCCC2` (stereo not shown) [Compound I-0200, N-hydroxy-3-phenyl-2-(4,5,6,7-tetrahydro-2H-indazol-2-yl)propanamide], 200 to 500 nM. Still for that read-out and setting: with `O=C(NO)C(Cc1ccccc1)n1ncc2c1CCCC2` (stereo not shown) [Compound I-0201, N-hydroxy-3-phenyl-2-(4,5,6,7-tetrahydro-1H-indazol-1-yl)propanamide] the figure was 200 to 500 nM. As for `Cn1nc(C(Cc2ccccc2)C(=O)NO)c2ccc(Cl)cc21` (stereo not shown) [Compound I-0202, 2-(6-Chloro-1-methyl-1H-indazol-3-yl)-N-hydroxy-3-phenylpropanamide], the 50% inhibitory concentration (IC50) (HDAC8, read-out: IC50) was found to be 39 nM. On to `Cn1nccc1-c1ccc2c(C(Cc3ccccc3)C(=O)NO)nn(C)c2c1` (stereo not shown) [Compound I-0203, N-hydroxy-2-(1-methyl-6-(1-methyl-1H-pyrazol-5-yl)-1H-indazol-3-yl)-3-phenylpropanamide], for which the IC50 under setting [1] lay in the range of 50 to 200 nM. For the compound `Cn1nc(C(Cc2ccccc2)C(=O)NO)c2ccc(-c3cncnc3)cc21` (stereo not shown) [Compound I-0204, N-hydroxy-2-(1-methyl-6-pyrimidin-5-yl-1H-indazol-3-yl)-3-phenylpropanamide], the IC50 by setting is: (HDAC8, read-out: IC50) 84 nM; under setting [1], 50 to 200 nM. Take `Cn1nc(C(Cc2ccccc2)C(=O)NO)c2ccc(-c3ccncc3)cc21` (stereo not shown) [Compound I-0205, N-hydroxy-2-(1-methyl-6-(pyridin-4-yl)-1H-indazol-3-yl)-3-phenylpropanamide]: the IC50 under setting [1] lay in the range of 50 to 200 nM. On the same count and under the same terms, with `O=C(NO)C(Cc1ccccc1)n1nc2c(c1C#CC1CC1)CCCC2` (stereo not shown) [Compound I-0206, 2-(3-(cyclopropylethynyl)-4,5,6,7-tetrahydro-2H-indazol-2-yl)-N-hydroxy-3-phenylpropanamide] the figure was ≤ 50 nM; with `O=C(NO)C(Cc1ccccc1)n1nc2c(-c3cncnc3)nccc2c1C#CC1CC1` (stereo not shown) [Compound I-0207, 2-(3-(cyclopropylethynyl)-7-(pyrimidin-5-yl)-2H-pyrazolo[3,4-c]pyridin-2-yl)-N-hydroxy-3-phenylpropanamide], ≤ 50 nM.
